This is an account of results in the RepoRT retention time repository (doi:10.1016/j.scitotenv.2015.08.078).

SMILES strings stand for the structures.

The data set is described as follows: RP, Waters ACQUITY UPLC BEH C18, 100 × 2.1 mm, 1.7 µm, 0.3 mL/min, estimated dead time 0.73 min; A: water + 0.1% formic acid, pH 3; B: methanol + 0.1% formic acid, pH 3; gradient (min/%B) 0/10 14/90 16/90 18/10. The note with it: stereoisomer not certain.
Take `CNC(=O)Oc1cccc2c1OC(C)(C)C2O` (centres undefined) [Carbofuran-3-OH]: the LC retention time is 4.08 min.
On to `CNC(=O)Oc1cccc2c1OC(C)(C)C2` [Carbofuran], for which the LC retention time was 8.15 min.
Consider `CC1=C(C(=O)Nc2ccccc2)SCCO1` [Carboxin], for which the LC retention time was 7.77 min.
With `CCOC(=O)C(Cl)Cc1cc(-n2nc(C)n(C(F)F)c2=O)c(F)cc1Cl` (centres undefined) [Carfentrazone-ethyl] the figure was 11.4 min.
With `NC(C(=O)NC1C(=O)N2C(C(=O)O)=C(Cl)CSC12)c1ccccc1` (centres undefined) [Cefaclor] the figure was 4.02 min; with `CC1=C(C(=O)O)N2C(=O)C(NC(=O)C(N)c3ccc(O)cc3)C2SC1` (centres undefined) [Cefadroxil], 4.91 min; with `CC1=C(C(=O)O)N2C(=O)C(NC(=O)C(N)c3ccccc3)C2SC1` (centres undefined) [Cefalexin], 3.25 min.
The same measure for `CON=C(C(=O)NC1C(=O)N2C(C(=O)O)=C(COC(C)=O)CSC12)c1csc(N)n1` (centres undefined) [Cefotaxime]: 4.41 min; for `CON=C(C(=O)NC1C(=O)N2C(C(=O)[O-])=C(C[n+]3cccc4c3CCCC4)CSC12)c1csc(N)n1` (centres undefined) [Cefquinome]: 3.4 min; for `CON=C(C(=O)NC1C(=O)N2C(C(=O)O)=C(COC(N)=O)CSC12)c1ccco1` (centres undefined) [Cefuroxime]: 9.51 min.
Turning to `O=C(NC(CO)C(O)c1ccc([N+](=O)[O-])cc1)C(Cl)Cl` (centres undefined) [Chloramphenicol], the LC retention time was 5.3 min.
Turning to `CNC(=O)c1cc(Cl)cc(C)c1NC(=O)c1cc(Br)nn1-c1ncccc1Cl` [Chlorantraniliprole], the LC retention time was 10.4 min.
With `CON(C)C(=O)Nc1ccc(Br)c(Cl)c1` [Chlorbromuron] the figure was 10.1 min; with `CCOP(=O)(OCC)OC(=CCl)c1ccc(Cl)cc1Cl` [Chlorfenvinphos], 12 min; with `O=C(NC(=O)c1c(F)cccc1F)Nc1cc(Cl)c(Oc2ncc(C(F)(F)F)cc2Cl)c(Cl)c1` [Chlorfluazuron], 13.9 min.
The same measure for `Nc1cnn(-c2ccccc2)c(=O)c1Cl` [Chloridazon (Pyrazon)]: 4.82 min; for `CCOC(=O)c1ccccc1S(=O)(=O)NC(=O)Nc1nc(Cl)cc(OC)n1` [Chlorimuron ethyl]: 8.65 min; for `CCOP(=S)(OCC)Oc1nc(Cl)c(Cl)cc1Cl` [Chloropyrifos]: 14.1 min.
With `CN(C)CCC(c1ccc(Cl)cc1)c1ccccn1` (centres undefined) [Chlorpheniramine] the figure was 7.27 min; with `CN(C)CCCN1c2ccccc2Sc2ccc(Cl)cc21` [Chlorpromazine], 10.3 min; with `COP(=S)(OC)Oc1nc(Cl)c(Cl)cc1Cl` [Chlorpyriphos-methyl], 12.1 min.
With `COc1nc(C)nc(NC(=O)NS(=O)(=O)c2ccccc2Cl)n1` [Chlorsulfuron], the LC retention time was 7.94 min.
With `CC(C)(C)NCC(O)c1ccc(N)c(C#N)c1` (centres undefined) [Cimbuterol] the figure was 2.78 min; with `CN=C(NC#N)NCCSCc1nc[nH]c1C` [Cimetidine], 2.28 min.
With `COCCOc1ccccc1S(=O)(=O)NC(=O)Nc1nc(OC)nc(OC)n1` [Cinosulfuron] the figure was 6.25 min; with `O=C(O)c1cn(C2CC2)c2cc(N3CCNCC3)c(F)cc2c1=O` [Ciprofloxacin], 3.93 min; with `CCC1OC(=O)C(C)C(OC2CC(C)(OC)C(O)C(C)O2)C(C)C(OC2OC(C)CC(N(C)C)C2O)C(C)(OC)CC(C)C(=O)C(C)C(O)C1(C)O` (centres undefined) [Clarithromycin], 10.5 min.
With `CC(C)(C)NCC(O)c1cc(Cl)c(N)c(Cl)c1` (centres undefined) [Clenbuterol] the figure was 5.15 min.
As for `CCC(C)(C)NCC(O)c1cc(Cl)c(N)c(Cl)c1` (centres undefined) [Clenpenterol], the LC retention time is 6.19 min.
As for `CC(C)NCC(O)c1cc(Cl)c(N)c(Cl)c1` (centres undefined) [Clenproperol], the LC retention time is 4.05 min.
With `CCCC1CC(C(=O)NC(C(C)Cl)C2OC(SC)C(O)C(O)C2O)N(C)C1` (centres undefined) [Clindamycin] the figure was 7.04 min; with `CCC(=O)OC1(C(=O)CCl)C(C)CC2C3CCC4=CC(=O)C=CC4(C)C3(F)C(O)CC21C` (centres undefined) [Clobetasol propionate], 11.4 min.
The same measure for `C#CCOC(=O)C(C)Oc1ccc(Oc2ncc(Cl)cc2F)cc1` (centres undefined) [Clodinafop-propargyl]: 11.5 min; for `CC1(C)CON(Cc2ccccc2Cl)C1=O` [Clomazone]: 9.54 min; for `CCCCCC(C)OC(=O)COc1ccc(Cl)c2cccnc12` (centres undefined) [Cloquintocet - mexyl]: 13 min.
With `CNC(=N[N+](=O)[O-])NCc1cnc(Cl)s1` [Clothianidin], the LC retention time was 4.13 min.
In the case of `CCOC(=O)C1C(OC(=O)c2ccccc2)CC2CCC1N2C` (centres undefined) [Cocaethylene], the LC retention time was 6.53 min.
The same measure for `COC(=O)C1C(OC(=O)c2ccccc2)CC2CCC1N2C` (centres undefined) [Cocaine]: 5.49 min; for `CC12CCC(=O)C=C1CCC1C2C(O)CC2(C)C(C(=O)CO)CCC12` (centres undefined) [Corticosterone]: 9.37 min; for `CC12CCC(=O)C=C1CCC1C2C(=O)CC2(C)C1CCC2(O)C(=O)CO` (centres undefined) [Cortisone]: 8.13 min.
For `CCOP(=S)(OCC)Oc1ccc2c(C)c(Cl)c(=O)oc2c1` [Coumaphos], the LC retention time was 12.4 min.
With `CCNc1nc(Cl)nc(NC(C)(C)C#N)n1` [Cyanazine] the figure was 7.05 min.
Regarding `CCOP(=S)(Oc1ccc(C#N)cc1)c1ccccc1` (centres undefined) [Cyanofenphos], the LC retention time is 11.7 min.
With `CCSC(=O)N(CC)C1CCCCC1` [Cycloate] the figure was 12.3 min; with `CCCC(=NOCC)C1=C(O)CC(C2CCCSC2)CC1=O` (centres undefined) [Cycloxydime], 11.3 min; with `CCNC(=O)NC(=O)C(C#N)=NOC` [Cymoxanil], 5.24 min.
In the case of `CC(C1CC1)C(O)(Cn1cncn1)c1ccc(Cl)cc1` (centres undefined) [Cyproconazole I], the LC retention time is 10.5 min.
The same measure for `Cc1cc(C2CC2)nc(Nc2ccccc2)n1` [Cyprodinil]: 10.7 min; for `Nc1nc(N)nc(NC2CC2)n1` [Cyromazine]: 1.45 min.
With `Nc1ccc(S(=O)(=O)c2ccc(N)cc2)cc1` [Dapsone] the figure was 3.17 min; with `CC(C)Nc1nc(N)nc(Cl)n1` [Deetheylatrazine], 6.06 min; with `CC(C)(C)Nc1nc(N)[nH]c(=O)n1` [Deethyl-2-hydroxy-terbuthylazine], 3.24 min.
With `CSc1nc(N)nc(NC(C)(C)C)n1` [Deethylterbutryn] the figure was 9.3 min.
In the case of `CC1(C)C(C=C(Br)Br)C1C(=O)OC(C#N)c1cccc(Oc2ccccc2)c1` (centres undefined) [Deltamethrin], the LC retention time was 14 min.
The same measure for `CCSCCSP(=O)(OC)OC` [Demeton-S-methyl]: 7.56 min; for `CC1=CC2OC3C(O)CC(C)(C34CO4)C2(CO)C(O)C1=O` (centres undefined) [Deoxynivalenol]: 2.83 min; for `O=C1CN=C(c2ccccc2F)c2cc(Cl)ccc2N1` [Desalkyl-flurazepam]: 10 min.
With `CCNc1nc(N)nc(Cl)n1` [Desisopropylatrazine] the figure was 4.38 min; with `CNc1nc(NC(C)C)nc(SC)n1` [Desmetryn], 8.78 min; with `CC(C)c1cc(Oc2ccccc2)cc(C(C)C)c1NC(=S)NC(C)(C)C` [Diafenthiuron], 13.7 min.
Turning to `CN1C(=O)CN=C(c2ccccc2)c2cc(Cl)ccc21` [Diazepam], the LC retention time is 10.9 min.
Take `CCOP(=S)(OCC)Oc1cc(C)nc(C(C)C)n1` [Diazinon]: the LC retention time is 12.5 min.
With `CCOP(=S)(OCC)Oc1ccc(Cl)cc1Cl` [Dichlofenthion] the figure was 13.4 min.
Turning to `CN(C)S(=O)(=O)N(SC(F)(Cl)Cl)c1ccccc1` [Dichlofluanid], the LC retention time was 10.8 min.
The same measure for `C=CCN(CC=C)C(=O)C(Cl)Cl` [Dichlormid]: 7.52 min.
With `COP(=O)(OC)OC=C(Cl)Cl` [Dichlorvos] the figure was 7.31 min.
The same measure for `Cc1onc(-c2c(Cl)cccc2Cl)c1C(=O)NC1C(=O)N2C1SC(C)(C)C2C(=O)O` (centres undefined) [Dicloxacillin]: 10.4 min.
Regarding `CC=C(C(=CC)c1ccc(O)cc1)c1ccc(O)cc1` [Dienestrol], the LC retention time was 11.1 min.
With `CCOc1ccc(NC(=O)OC(C)C)cc1OCC` [Diethofencarb] the figure was 9.88 min.
The same measure for `CCOC(=O)c1ccccc1C(=O)OCC` [Diethyl phthalate]: 9.3 min.
The same measure for `CCN(CC)C(=O)N1CCN(C)CC1` [Diethylcarbamazine]: 2.52 min; for `CCC(=C(CC)c1ccc(O)cc1)c1ccc(O)cc1` [Diethylstilbestrol]: 10.9 min; for `O=C(NC(=O)c1c(F)cccc1F)Nc1ccc(Cl)cc1` [Diflubenzuron]: 11.2 min.
For `O=C(Nc1ccc(F)cc1F)c1cccnc1Oc1cccc(C(F)(F)F)c1` [Diflufenican], the LC retention time was 12.7 min.
The same measure for `CN(C)C(=O)Nc1ccc(-n2nc(C(C)(C)C)oc2=O)c(Cl)c1` [Dimefuron]: 9.63 min; for `CC(C)(SC(=O)N1CCCCC1)c1ccccc1` [Dimepiperate]: 12.3 min; for `COCCN(C(=O)CCl)c1c(C)cccc1C` [Dimethachlor]: 9.39 min.
In the case of `CCNc1nc(NC(C)C(C)C)nc(SC)n1` (centres undefined) [Dimethametryn], the LC retention time was 11.4 min.
The same measure for `COCC(C)N(C(=O)CCl)c1c(C)csc1C` (centres undefined) [Dimethenamid]: 10.1 min.
